Target: T1, recombinant human AKR1C3 (Aldo-keto reductase family 1 member C3) (Homo sapiens, UniProt P42330)
T1 construct: GST (cleaved yes); made in house; host or cells: E. coli
T1 sequence (P42330 1-323): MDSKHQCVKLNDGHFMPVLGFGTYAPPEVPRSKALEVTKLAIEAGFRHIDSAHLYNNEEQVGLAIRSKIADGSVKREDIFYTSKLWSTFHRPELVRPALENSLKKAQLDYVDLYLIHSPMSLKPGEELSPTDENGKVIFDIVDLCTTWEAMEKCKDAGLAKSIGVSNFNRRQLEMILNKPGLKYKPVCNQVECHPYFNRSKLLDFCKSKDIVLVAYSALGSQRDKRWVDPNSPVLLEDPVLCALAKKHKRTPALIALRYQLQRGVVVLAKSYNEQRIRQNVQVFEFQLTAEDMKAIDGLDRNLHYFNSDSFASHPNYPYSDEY
Experiment: In Vitro Assay 1: AKR1C3-inhibitory activity (Coumberone to Coumberol fluorescence assay)
Format: biochemical
Conditions: recombinant enzyme, Coumberone 0.3 μM, NADPH 10 μM, 15 min pre-incubation, 4-parameter fit; average or median values
Procedure: In Vitro Assay 1: AKR1C3-Inhibitory Activity
The AKR1C3-inhibitory activity of the substances of the present invention was measured in the AKR1C3 assay described in the paragraphs below.
Essentially, the enzyme activity is measured by quantification of the Coumberol from Coumberone (Halim, M., Yee, D. J., and Sames, D., J. AM. CHEM. SOC. 130, 14123-14128 (2008) and Yee, D. J., Balsanek, V., Bauman, D. R., Penning, T. M., and Sames, D., Proc. Natl. Acad. Sci. USA 103, 13304-13309 (2006)). In this test, the increase of the highly fluorescent Coumberol by NADPH- (nicotinamide adenine dinucleotide phosphate)-dependent reduction of the non-fluorescent Coumberone by AKR1C3 can be determined.
The enzyme used was recombinant human AKR1C3 (Aldo-keto reductase family 1 member C3) (GenBank Accession No. NM_003739). This was expressed in E. coli as GST (glutathione S transferase) fusion protein and purified by glutathione Sepharose affinity chromatography. The GST was removed by digestion with thrombin and subsequent size exclusion chromatography (Dufort, I., Rheault, P., Huang, X F., Soucy, P., and Luu-The, V., Endocrinology 140, 568-574 (1999)).
For the assay, 50 nl of a 100-fold concentrated solution of the test substance in DMSO were pipetted into a black low-volume 384-well microtiter plate (Greiner Bio-One, Frickenhausen, Germany), 2.5 μl of a solution of AKR1C3 in assay buffer [50 mM potassium phosphate buffer pH 7, 1 mM DTT, 0.0022% (w/v) Pluronic F-127, 0.01% BSA (w/v) and protease inhibitor cocktail (Complete, EDTA-free Protease Inhibitor Cocktail from Roche)] were added and the mixture was incubated for 15 min to allow pre-binding of the substances to the enzyme prior to the enzyme reaction. The enzyme reaction was then started by addition of 2.5 μl of a solution of NADPH (20 μM→final concentration in 5 μl of assay volume is 10 μM) and Coumberone (0.6 μM→final concentration in 5 μl of assay volume is 0.3 μM) in assay buffer, and the resulting mixture was incubated at […] for the reaction time of typically 90 min. The concentration of the AKR1C3 and the reaction time was adapted to the respective activity of the enzyme preparation and adjusted such that the assay was carried out in the linear range.
Typical AKR1C3 concentrations were in the region of 1 nM. The reaction was stopped by addition of 2.5 μl of a stop solution consisting of the inhibitor EM-1404 [F. Labrie et al. U.S. Pat. No. 6,541,463, 2003] (3 μM→final concentration in 7.5 μl of assay volume is 1 μM). The fluorescence of the Coumberole was then measured at 520 nm (excitation at 380 nm) using a suitable measuring instrument (Pherastar from BMG Labtechnologies). The intensity of the fluorescence was used as a measure of the amount of Coumberole formed and thus of the enzyme activity of AKR1C3. The data were normalized (enzyme reaction without inhibitor—0% inhibition; all other assay components, but no enzyme=100% inhibition).

Row | IC50 [nM] | Compound
1 | 3 | O=C(c1cnn[nH]1)N1C[C@@H]2[C@H](C1)[C@H]1CC[C@@H]2N1S(=O)(=O)c1cc(Cl)ccc1F [Example 51, {(3aR,4R,7S,7aS)-8-[(5-chloro-2-fluorophenyl)sulfonyl]octahydro-2H-4,7-epiminoisoindol-2-yl}(1H-1,2,3-triazol-5-yl)methanone]
2 | 33 | N#Cc1ccc(Cl)c(S(=O)(=O)N2[C@@H]3CC[C@H]2[C@@H]2CN(C(=O)c4cnn[nH]4)C[C@@H]23)c1 [Example 67, 4-chloro-3-{[(3aR,4R,7S,7aS)-2-(1H-1,2,3-triazol-5-ylcarbonyl)octahydro-1H-4,7-epiminoisoindol-8-yl]sulfonyl}benzonitrile]
3 | 5 | Cc1ccccc1S(=O)(=O)N1[C@@H]2CC[C@H]1[C@H]1CN(C(=O)c3c[nH]nn3)C[C@H]12 [Example 16, {(3aR,4S,7R,7aS)-8-[(2-methylphenyl)sulfonyl]octahydro-2H-4,7-epiminoisoindol-2-yl}(1H-1,2,3-triazol-4-yl)methanone]
4 | 31 | O=C(c1c[nH]nn1)N1C[C@@H]2[C@H](C1)[C@@H]1CC[C@H]2N1S(=O)(=O)c1cccc(Cl)c1F [Example 6, {(3aR,4S,7R,7aS)-8-[(3-chloro-2-fluorophenyl)sulfonyl]octahydro-2H-4,7-epiminoisoindol-2-yl}(1H-1,2,3-triazol-4-yl)methanone]
5 | 7 | O=C(c1c[nH]nn1)N1C[C@@H]2[C@H](C1)[C@@H]1CC[C@H]2N1S(=O)(=O)c1ccccc1Cl [Example 8, {(3aR,4S,7R,7aS)-8-[(2-chorophenyl)sulfonyl]octahydro-2H-4,7-epiminoisoindol-2-yl}(1H-1,2,3-triazol-4-yl)methanone]
6 | 74 | O=C(c1c[nH]nn1)N1C[C@@H]2[C@H](C1)[C@@H]1CC[C@H]2N1S(=O)(=O)c1cc(F)cc(F)c1 [Example 7, {(3aR,4S,7R,7aS)-8-[(3,5-difluorophenyl)sulfonyl]octahydro-2H-4,7-epiminoisoindol-2-yl}(1H-1,2,3-triazol-4-yl)methanone]
7 | 121 | O=C(c1c[nH]nn1)N1[C@@H]2CC[C@H]1[C@H]1CN(S(=O)(=O)c3cccc(S(F)(F)(F)(F)F)c3)C[C@H]12 [Example 10, [(3aR,4S,7R,7aS)-2-{[3-(pentafluoro-λ^6-sulfanyl)phenyl]sulfonyl}octahydro-1H-4,7-epiminoisoindol-8-yl](1H-1,2,3-triazol-4-yl)methanone]
8 | 12 | O=C(c1cnn[nH]1)N1C[C@@H]2[C@H](C1)[C@H]1CC[C@@H]2N1S(=O)(=O)c1cccc(F)c1Cl [Example 64, {(3aR,4R,7S,7aS)-8-[(2-chloro-3-fluorophenyl)sulfonyl]octahydro-2H-4,7-epiminoisoindol-2-yl}(1H-1,2,3-triazol-5-yl)methanone]
9 | 21 | O=C(c1cnn[nH]1)N1[C@@H]2CC[C@H]1[C@H]1CN(S(=O)(=O)c3cc(Cl)cc(Cl)c3)C[C@H]12 [Example 28, {(3aR,4S,7R,7aS)-2-[(3,5-dichlorophenyl)sulfonyl]octahydro-1H-4,7-epiminoisoindol-8-yl}(1H-1,2,3-triazol-5-yl)methanone]
10 | 19 | O=C(c1c[nH]nn1)N1C[C@@H]2[C@H](C1)[C@@H]1CC[C@H]2N1S(=O)(=O)c1cc(F)ccc1F [Example 18, {(3aR,4S,7R,7aS)-8-[(2,5-difluorophenyl)sulfonyl]octahydro-2H-4,7-epiminoisoindol-2-yl}(1H-1,2,3-triazol-4-yl)methanone]
11 | 501 | NC(=O)c1cccc(S(=O)(=O)N2[C@@H]3CC[C@H]2[C@@H]2CN(C(=O)c4cnn[nH]4)C[C@@H]23)c1 [Example 60, 3-{[(3aR,4R,7S,7aS)-2-(1H-1,2,3-triazol-5-ylcarbonyl)octahydro-1H-4,7-epiminoisoindol-8-yl]sulfonyl}benzamide]
12 | 735 | Nc1cccc(S(=O)(=O)N2[C@@H]3CC[C@H]2[C@@H]2CN(C(=O)c4cnn[nH]4)C[C@@H]23)c1 [Example 69, {(3aR,4R,7S,7aS)-8-[(3-aminophenyl)sulfonyl]octahydro-2H-4,7-epiminoisoindol-2-yl}(1H-1,2,3-triazol-5-yl)methanone]

From patent US20200085791A1, “[(PHENYLSULFONYL)OCTAHYDRO-EPIMINOISOINDOL-YL](1H-1,2,3-TRIAZOL-5-YL)METHANONES” (Bayer Pharma Aktiengesellschaft, priority 2016, published 2020)
